Drawing on DBAASP, this text covers MIC for six compounds.

Some test systems named below: Escherichia coli UB1005; Escherichia coli DC2; Pseudomonas putida; Pseudomonas fluorescens; Bacillus subtilis 168; Escherichia coli B; Pseudomonas aeruginosa; Staphylococcus aureus.
Holding throughout (test): ≥ marks a high value that may be exact or a test limit, other limits are often not marked, values filed in µg/mL are converted to µM
In assay [1] the test system is Corynebacterium xerosis C875.
Assay [2] relates to Staphylococcus epidermidis C621.
Assay [3] has as its system Enterobacter cloacae AB2010162.
The test system of assay [4] is Acinetobacter baumannii ATCC 19606.
Assay [5] has as its system Escherichia coli ATCC 25922.
Assay [6] relates to Staphylococcus aureus ATCC 25923.
The test system of assay [7] is Salmonella enterica AB2010185.
The subject of assay [8] is Pseudomonas aeruginosa ATCC BAA-427.
The test system of assay [9] is Staphylococcus aureus AB94004.
Assay [10] deals with Klebsiella pneumoniae ATCC 27736.
Assay [11] relates to Bacillus magaterium AB90008.
The subject of assay [12] is Staphylococcus aureus ATCC 33591.
Assay [13] concerns Micrococcus luteus AB2010179.
Assay [14] deals with Escherichia coli DH5alpha.
Assay [15] concerns Candida albicans F7-39/IDE99.
In assay [16] the test system is Streptococcus pyogenes ATCC 19615.
Assay [17] has as its system Escherichia coli ATCC 8739.
Assay [18] relates to Salmonella enterica subsp. enterica serovar Typhimurium ATCC 14028.
The subject of assay [19] is Enterococcus faecalis ATCC 12953.
Assay [20] deals with Staphylococcus aureus ATCC 29213.
The subject of assay [21] is Klebsiella pneumoniae ATCC 13885.
Assay [22] relates to Bacillus subtilis ATCC 6633.
Assay [23] relates to Proteus mirabilis ATCC 25933.
The subject of assay [24] is Pseudomonas aeruginosa ATCC 15442.
For assay [25], the system named is Acinetobacter baumannii NM8.
Assay [26] deals with Escherichia coli ATCC 25726.
Assay [27] relates to Stenotrophomonas maltophilia B32/1.
Assay [28] deals with Stenotrophomonas maltophilia B32/4.
The test system of assay [29] is Staphylococcus aureus 127/08.
Assay [30] deals with Enterococcus faecalis 981.
In assay [31] the test system is Psychrobacter faecalis X29.
Assay [32] deals with Bacillus licheniformis X39.
Assay [33] relates to Candida albicans ATCC 2002.
The subject of assay [34] is Enterococcus faecium 091299.
Assay [35] relates to Rhodococcus rhodochrous X15.
Assay [36] relates to Staphylococcus carnosus KHS.

Converted amounts (≈) assume the structure as drawn. Where only a bound is given, the exact number is not on record here.

For `C[C@H](NC(=O)[C@H](C)NC(=O)[C@H](C)NC(=O)[C@H](Cc1cnc[nH]1)NC(=O)[C@H](C)NC(=O)[C@H](C)NC(=O)[C@H](C)NC(=O)[C@H](CCCCN)NC(=O)[C@@H](N)CCCCN)C(=O)N[C@@H](C)C(=O)N[C@@H](C)C(=O)N[C@@H](Cc1cnc[nH]1)C(=O)N[C@@H](C)C(=O)N[C@@H](C)C(=O)N[C@@H](Cc1c[nH]c2ccccc12)C(=O)N[C@@H](C)C(=O)N[C@@H](C)C(=O)N[C@@H](Cc1cnc[nH]1)C(=O)N[C@@H](C)C(=O)N[C@@H](C)C(=O)N[C@@H](C)C(=O)N[C@@H](CCCCN)C(=O)N[C@@H](CCCCN)C(=O)N[C@@H](CCCCN)C(=O)N[C@@H](CCCCN)C(N)=O` [KKAAAHAAAAAHAAWAAHAAAKKKK], the MIC (usually the lowest concentration found to suppress growth) in assay [1] was at least 32 µM; in the assay on Escherichia coli UB1005, at least 64 µM; against Escherichia coli DC2 it was at least 64 µM; in [2] it was at least 64 µM.
As to `CC[C@H](C)[C@H](N)C(=O)N[C@@H](CC(C)C)C(=O)NCC(=O)N[C@@H](CCC(=O)O)C(=O)N[C@H](C(=O)N[C@@H](Cc1c[nH]c2ccccc12)C(=O)N[C@@H](CCCCN)C(=O)NCC(=O)N[C@H](C(=O)N[C@@H](CCCCN)C(=O)N[C@@H](CC(=O)O)C(=O)N[C@H](C(=O)N[C@@H](CC(C)C)C(N)=O)[C@@H](C)CC)[C@@H](C)CC)[C@@H](C)CC` [ILGEIWKGIKDIL], the MIC in [3] is at least 82 µM; in assay [4] it was over 26.7 µM; in assay [5], at least 100 µM; in the assay on Pseudomonas putida it was at least 82 µM; in [6], at least 100 µM; against Pseudomonas fluorescens, at least 82 µM. The MIC in assay [7] is at least 82 µM; in assay [8], at least 100 µM; in assay [9] it was at least 82 µM; in [10], at least 100 µM; in [11], at least 41 µM; in assay [12], at least 100 µM. The MIC in assay [13] and in assay [14] was at least 82 µM in each case.
`CC[C@H](C)[C@H](NC(=O)[C@H](Cc1cnc[nH]1)NC(=O)[C@H](CCCCN)NC(=O)[C@H](CC(C)C)NC(=O)[C@H](Cc1ccccc1)NC(=O)[C@H](CO)NC(=O)[C@H](CCSC)NC(=O)[C@H](Cc1c[nH]c2ccccc12)NC(=O)[C@H](CCCCN)NC(=O)CN)C(=O)N[C@@H](CC(C)C)C(=O)N[C@@H](CCCCN)C(N)=O` [GKWMSFLKHILK]: the MIC with Bacillus subtilis 168 came to 1.1 µM (≈ 1.64 µg/mL); with Escherichia coli B it was 4 µM (≈ 5.95 µg/mL); in the assay on Pseudomonas aeruginosa, 21.8 µM (≈ 32.4 µg/mL); in [15] it was 6.8 µM (≈ 10.1 µg/mL); against Staphylococcus aureus, 6.4 µM (≈ 9.52 µg/mL).
For the compound `NCCCC[C@H](NC(=O)[C@@H](N)CCCCN)C(=O)N[C@@H](Cc1ccccc1)C(=O)N[C@@H](Cc1c[nH]c2ccccc12)C(=O)N[C@@H](CCC(=O)O)C(=O)N[C@@H](CC(=O)O)C(=O)N[C@@H](CC(=O)O)C(=O)NCC(N)=O` [KKFWEDDG], the MIC is at least 125 µM in [16]; at least 250 µM in assay [17]; 125 µM (≈ 128 µg/mL) in assay [18]; at least 125 µM in [19]; 250 µM (≈ 256 µg/mL) in [20]; at least 125 µM in [21]. The MIC was at least 250 µM in assay [22], at least 125 µM in [23] and at least 250 µM in [24].
With `CC[C@H](C)[C@@H]1NC(=O)[C@H](CCCCN)NC(=O)[C@@H](NC(=O)[C@H](C)NC(=O)[C@@H](NC(=O)[C@H](CC(C)C)NC(=O)[C@H](CC(=O)O)NC(=O)[C@@H](NC(=O)CNC(=O)[C@H](CC(C)C)NC(=O)[C@H](CCCCN)NC(=O)[C@H](C)NC(=O)[C@H](CC(C)C)NC(=O)[C@H](CC(=O)O)NC(=O)[C@H](CCCCN)NC(=O)CNC(=O)[C@H](CC(C)C)NC(=O)CNC(=O)[C@@H](N)CCCCN)C(C)C)C(C)C)CSSC[C@@H](C(=O)O)NC(=O)[C@H](CCC(N)=O)NC(=O)[C@H](CCCCN)NC(=O)[C@H](CO)NC1=O` [KGLGKDLAKLGVDLVACKISKQC], the MIC in [25] is at least 200 µM; in assay [26], at least 200 µM; in assay [27], at least 200 µM; in assay [28], at least 200 µM; in assay [6], over 200 µM; in assay [29], at least 200 µM.
As to `CC[C@H](C)[C@H](NC(=O)[C@H](CC(C)C)NC(=O)[C@@H]1CCCN1C(=O)[C@H](CC(C)C)NC(=O)[C@@H](N)Cc1ccccc1)C(=O)N[C@@H](C)C(=O)N[C@@H](CO)C(=O)N[C@H](C(=O)N[C@@H](C)C(=O)N[C@@H](C)C(=O)N[C@@H](CC(N)=O)C(=O)N[C@@H](CC(C)C)C(=O)N[C@H](C(=O)N1CCC[C@H]1C(=O)N[C@@H](CCCCN)C(=O)N[C@H](C(=O)N[C@@H](Cc1ccccc1)C(=O)N[C@H]1CSSC[C@@H](C(=O)O)NC(=O)[C@H](CCCCN)NC(=O)[C@H](CCCCN)NC(=O)[C@H]([C@@H](C)O)NC(=O)[C@H]([C@@H](C)CC)NC(=O)[C@H](CCCCN)NC1=O)[C@@H](C)CC)C(C)C)C(C)C` [FLPLIASVAANLVPKIFCKITKKC], the MIC was at least 75 µM in assay [30]; 9.5 µM (≈ 24.9 µg/mL) in [31]; 150 µM (≈ 392 µg/mL) in [5]; 2.4 µM (≈ 6.28 µg/mL) in assay [6]; 2.4 µM (≈ 6.28 µg/mL) in assay [32]; 9.5 µM (≈ 24.9 µg/mL) in [33]. For the same compound, the MIC in assay [34] is at least 37.5 µM; in [35], 1.2 µM (≈ 3.14 µg/mL); in assay [36], 19 µM (≈ 49.7 µg/mL).
